According to patent publication US20180153897A1, “RIBOFLAVIN FOR THE TREATMENT OF ISCHEMIC STROKE AND/OR OTHER GLUTAMATE EXCITOTOXICITY-ASSOCIATED DISEASES” (priority 2015, published 2018):
Where a name gives a salt, the structure may show the parent alone. Read-outs that look alike come from different tables or passages of the source. Each block holds one molecule with its values, some of them ahead of it.

What was measured:
recombinant human GOT = target: T1, recombinant human GOT (Homo sapiens, UniProt P17174); experiment: GOT activity assay (inhibition of glutamate formation), photometric kit; type: biochemical; conditions: for Maximum of inhibition of glutamate formation in confirmatory assay (%): confirmatory dose-response assay
T1 construct: purchased Abcam ab99147

blood glutamate [1] = experiment: Blood glutamate in ischemic (MCAO) animals; type: in vivo, rat; conditions: MCAO rats, 2 hours after administration
Method: Treatments were administered after artery reperfusion (45 min after occlusion). A total of 10 animals per group were included in this study. […] Infarct volume analysis were evaluated during the occlusion (30 min after occlusion), and 24h and 7 days after ischemia induction. Infarct volume determined at 30 min after artery occlusion (analyzed by diffusion weighted imaging, DWI) (Perez-Mato, M., et al., Cell Death Dis., 2014, 5:e992) was determined before treatments administration to confirm that all animals included in the study were submitted to the same ischemic insult. These values were used as basal infarct volume. […] With this purpose, dose of 35mg/Kg (average weight of animals: 350 g) of oxaloacetate (Ref 171263, Sigma) was prepared in a saline solution (0.9% of NaCl, pH adjusted to 7.4) at a final concentration of 12.25 mg/mL. […] Dose of 1 mg/Kg of riboflavin (Ref. 4500, Sigma) initially dissolved in a minimal amount of dimethyl sulfoxide (DMSO) and then dissolved in a saline solution (0.9% of NaCl, pH adjusted to 7.4) at a final concentration of 0.35 mg/mL. […] Serum samples were collected in test tubes, centrifuged at 3000 r.p.m. for 7 min, serum was removed and immediately frozen and stored at −80 ° C. Serum glutamate concentration was determined by means of Glutamate Assay Kit (Abnova, Taipei City, Taiwan) following the manufacturer's technical specifications. […]

[2] = target: T2, succinate dehydrogenase (SDH) (Homo sapiens, UniProt P31040); experiment: Complex II Enzyme Activity Microplate Assay (SDH inhibition); type: biochemical; conditions: dose-response curve, FIG. 1; enzyme extracted from HepG2 cells
T2 construct: endogenous in cells; host or cells: HepG2 (ATCC HB-8065); complex captured with Abcam Complex II Enzyme Activity Microplate Assay ab109908
Description: To evaluate possible toxic effects on SDH, a secondary assay was set up, using Complex II Enzyme Activity Microplate Assay (from Abcam, ref. ab109908), based on the detection of 2,6-diclorophenolindophenol (DCPID), blue, which is reduced in contact with Ubiquinol, turning colorless and involving the measurement of a decrease in absorbance at 595 nm. The enzyme was extracted from HepG2 cells (ATCC, ref. HB-8065), following manufacturer's instructions.

blood glutamate [3] = experiment: Blood glutamate lowering in healthy animals; type: in vivo, rat; conditions: healthy rats; for percentage of blood glutamate lowering (respect to basal levels): riboflavin 1, 10 and 50 mg/Kg i.v.
Method: Experimental protocols were approved by the local Animal Care Committee according to the European Union (EU) rules (86/609/CEE, 2003/65/CE and 2010/63/EU). Male Sprague-Dawley rats (Harlan Laboratories, Barcelona, Spain) with an average weight of 350 g were used. Rats were watered and fed ad libitum. The dose-response effect of riboflavin on blood glutamate lowering was determined in healthy animals. Three (3) doses of riboflavin were tested (i.v.), 1, 10 and 50 mg/Kg (weight of animal). As control group was used animals treated with saline (0.9% of NaCl, pH adjusted to 7.4), and as positive control group, animals treated with oxaloacetate 35 mg/Kg. […] A total of 6 animals per group were included in this study. […] With this purpose, dose of 35mg/Kg (average weight of animals: 350 g) of oxaloacetate (Ref 171263, Sigma) was prepared in a saline solution (0.9% of NaCl, pH adjusted to 7.4) at a final concentration of 12.25 mg/mL. Dose of 15 mg/Kg of oxaloacetate was prepared in saline solution (0.9% of NaCl, pH adjusted to 7.4) at a final concentration of 5.25 mg/mL. Dose of 1 mg/Kg of riboflavin (Ref. 4500, Sigma) initially dissolved in a minimal amount of dimethyl sulfoxide (DMSO) and then dissolved in a saline solution (0.9% of NaCl, pH adjusted to 7.4) at a final concentration of 0.35 mg/mL. […] Serum samples were collected in test tubes, centrifuged at 3000 r.p.m. for 7 min, serum was removed and immediately frozen and stored at −80 ° C. Serum glutamate concentration was determined by means of Glutamate Assay Kit (Abnova, Taipei City, Taiwan) following the manufacturer's technical specifications.

MCAO rats = experiment: Infarct volume by MRI in MCAO rats; type: in vivo, rat; conditions: riboflavin 1 mg/Kg, 24 h and 7 days after ischemia
Method: Four (4) experimental groups were performed: 1) a control group treated with saline (0.9% of NaCl, pH adjusted to 7.4), 2) a group treated with riboflavin 1 mg/Kg, 3) a group treated with riboflavin 1 mg/Kg in combination with dose of oxaloacetate a non-effective (15 mg/Kg) and 4) a positive control group treated with oxaloacetate 35 mg/Kg. […] Treatments were administered after artery reperfusion (45 min after occlusion). A total of 10 animals per group were included in this study. […] Infarct volume analysis were evaluated during the occlusion (30 min after occlusion), and 24h and 7 days after ischemia induction. Infarct volume determined at 30 min after artery occlusion (analyzed by diffusion weighted imaging, DWI) (Perez-Mato, M., et al., Cell Death Dis., 2014, 5:e992) was determined before treatments administration to confirm that all animals included in the study were submitted to the same ischemic insult. These values were used as basal infarct volume. […] Infarct volume, also referred herein as infarct size, was assessed by means of magnetic resonance imaging (MRI). […] Infarct volumes were determined from (ADC maps) and T2-weighted images by manually selecting areas of reduced ADC values or hyperintense T2 signal by a researcher blinded to the animal protocols.

[4] = inhibition of glutamate formation, confirmatory assay, read-out: IC50(μM) in confirmatory assay
[5] = dose-response curve, FIG. 1, read-out: IC50 (GOT)

T1 sequence (P17174 whole entry): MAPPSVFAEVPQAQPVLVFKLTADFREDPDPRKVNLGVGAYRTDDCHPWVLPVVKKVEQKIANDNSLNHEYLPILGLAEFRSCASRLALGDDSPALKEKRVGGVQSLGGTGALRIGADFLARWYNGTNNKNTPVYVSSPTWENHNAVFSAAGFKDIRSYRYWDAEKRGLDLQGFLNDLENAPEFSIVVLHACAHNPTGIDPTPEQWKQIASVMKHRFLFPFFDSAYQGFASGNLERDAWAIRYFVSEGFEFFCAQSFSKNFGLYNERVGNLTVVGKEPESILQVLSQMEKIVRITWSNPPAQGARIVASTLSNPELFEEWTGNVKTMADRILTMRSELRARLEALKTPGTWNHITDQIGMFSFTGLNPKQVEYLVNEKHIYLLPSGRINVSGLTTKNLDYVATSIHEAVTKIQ
T2 sequence (P31040 43-664): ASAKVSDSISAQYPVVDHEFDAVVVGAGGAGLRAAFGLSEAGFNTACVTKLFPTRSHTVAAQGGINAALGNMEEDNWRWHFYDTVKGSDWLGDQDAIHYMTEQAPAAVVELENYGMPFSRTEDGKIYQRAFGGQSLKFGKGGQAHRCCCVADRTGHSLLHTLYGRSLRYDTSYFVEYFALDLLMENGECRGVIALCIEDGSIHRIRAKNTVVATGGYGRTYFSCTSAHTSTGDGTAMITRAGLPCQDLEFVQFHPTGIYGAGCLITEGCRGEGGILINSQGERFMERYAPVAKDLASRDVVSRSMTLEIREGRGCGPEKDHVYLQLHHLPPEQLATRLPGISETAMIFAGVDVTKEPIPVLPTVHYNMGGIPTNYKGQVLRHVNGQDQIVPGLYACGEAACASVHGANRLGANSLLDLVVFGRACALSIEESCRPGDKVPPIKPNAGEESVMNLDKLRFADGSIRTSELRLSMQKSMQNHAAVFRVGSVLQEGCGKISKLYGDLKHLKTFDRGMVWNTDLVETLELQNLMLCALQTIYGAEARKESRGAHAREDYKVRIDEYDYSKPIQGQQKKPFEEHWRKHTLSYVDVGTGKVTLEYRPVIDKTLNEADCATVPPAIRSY
T2 sequence (P21912 29-280 partner): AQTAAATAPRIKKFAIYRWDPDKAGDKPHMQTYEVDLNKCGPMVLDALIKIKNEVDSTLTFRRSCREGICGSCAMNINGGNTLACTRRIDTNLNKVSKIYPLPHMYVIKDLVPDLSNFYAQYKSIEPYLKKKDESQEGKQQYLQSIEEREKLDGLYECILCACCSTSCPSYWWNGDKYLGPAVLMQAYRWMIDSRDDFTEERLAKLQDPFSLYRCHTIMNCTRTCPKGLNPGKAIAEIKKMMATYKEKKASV
T2 sequence (Q99643 30-169 partner): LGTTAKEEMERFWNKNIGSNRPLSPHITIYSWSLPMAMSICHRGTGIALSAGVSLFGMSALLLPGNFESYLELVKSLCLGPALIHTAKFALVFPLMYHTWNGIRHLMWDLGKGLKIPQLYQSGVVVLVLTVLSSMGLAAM
T2 sequence (O14521 57-159 partner): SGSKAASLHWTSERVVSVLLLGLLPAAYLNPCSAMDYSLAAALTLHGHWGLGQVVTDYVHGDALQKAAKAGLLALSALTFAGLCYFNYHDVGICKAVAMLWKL

Molecule: (−)-3-(3,4-Dihydroxyphenyl)-2-methyl-L-alanine sesquihydrate [CBG000361]
- Maximum of inhibition of glutamate formation in confirmatory assay (%) (recombinant human GOT): 38.5%
- IC50 (recombinant human GOT; [4]): 117 µM

Molecule: Doxycycline hyclate [CBG000814]
- Maximum of inhibition of glutamate formation in confirmatory assay (%) (recombinant human GOT): 32%
- IC50 (recombinant human GOT; [4]): 15.1 µM

Molecule: CN1CCc2cccc3c2[C@H]1Cc1ccc(O)c(O)c1-3.CN1CCc2cccc3c2[C@H]1Cc1ccc(O)c(O)c1-3.Cl.Cl.O [CBG000083, R-(−)-Apomorphine hydrochloride hemihydrate]
- Maximum of inhibition of glutamate formation in confirmatory assay (%) (recombinant human GOT): 56.5%
- IC50 (recombinant human GOT; [4]): 58.1 µM

More lines, main results first:

- IC50 [2]: 10.8 µM
- Maximum of inhibition of glutamate formation in confirmatory assay (%) (recombinant human GOT): 63%
- IC50 (recombinant human GOT; [5]): 1.9 µM
- IC50 (recombinant human GOT; [4]): 1.96 µM
Molecule: Cc1cc2nc3c(=O)[nH]c(=O)nc-3n(C[C@H](O)[C@H](O)[C@H](O)CO)c2cc1C [CBG000592, 7,8-dimethyl-10-[(2S,3S,4R)-2,3,4,5-tetrahydroxypentyl]benzo[g]pteridine-2,4-dione]
- reduction of blood glutamate levels respect to basal levels (blood glutamate [1]; riboflavin 1 mg/Kg at reperfusion): about 30%
- percentage of blood glutamate lowering (respect to basal levels) (blood glutamate [3]; 30 min): about 25%
- percentage of blood glutamate lowering (respect to basal levels) (blood glutamate [3]; 2 h): about 50%
- percentage of blood glutamate lowering (respect to basal levels) (blood glutamate [3]; 4 h): 60%
- percentage of blood glutamate lowering (respect to basal levels) (blood glutamate [3]; 6 h): 50%
- lesion size (infarct volume) versus control (MCAO rats): significant (p<0.001) decrease of lesion size

- IC50 [2]: 1.8 µM
- IC50 (recombinant human GOT; [5]): 130 µM
Molecule: O=C(O)CC(=O)C(=O)O [oxaloacetate, 3-carboxy-3-oxopropanoate]
- reduction of blood glutamate levels respect to basal levels (blood glutamate [1]; oxaloacetate 35 mg/Kg at reperfusion): about 30%
- percentage of glutamate levels reduction (blood glutamate [3]; oxaloacetate 35 mg/Kg i.v., 2, 4 and 6 hours): ≤ 40%
- reduction of blood glutamate levels (blood glutamate [3]; oxaloacetate 35 mg/Kg i.v., 30 min): no effect

- Maximum of inhibition of glutamate formation in confirmatory assay (%) (recombinant human GOT): 35.5%
- IC50 (recombinant human GOT; [4]): 81.7 µM
Molecule: CC(CCc1ccc(O)cc1)NCCc1ccc(O)c(O)c1 (centres unmarked) [CBG000332, Dobutamine hydrochloride]
